Measurements: patent publication US20210221784A1, “COMPOUNDS AND COMPOSITIONS FOR THE TREATMENT OF PAIN” (Université de Strasbourg, priority 2018, published 2021)

Assays:
hNPFFR1 = target: T1, hNPFFR1 (Homo sapiens, UniProt Q9GZQ6); assay: Radioligand binding competition, membranes from CHO cells expressing hNPFFR1; settings: 0.015 nM [D-Tyr1[125I], N-MePhe3]-NPFF, 1 hr at 25° C., read-out: NPFF1-R Ki
T1 construct: expressed in transfected cells; membranes
Summary of the method: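 CHO membranes (5–10 μg protein) stably expressing hNPFFR1 or hNPFFR2 incubated 1 h at 25 °C with 0.015 nM [D-Tyr1[125I], N-MePhe3]-NPFF in HEPES pH 7.4 with Ca2+, Mg2+, 0.1% BSA. Non-specific binding defined with 10 μM RFRP-3; bound radioactivity counted after GF/B filtration.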

hNPFF1R = target: T2, hNPFF1R (Homo sapiens, UniProt Q9GZQ6); assay: Glo Sensor cAMP assay in HEK-293 expressing hNPFF1R; type: cell-based
T2 construct: expressed in transfected cells
T2 sequence (Q9GZQ6 whole entry): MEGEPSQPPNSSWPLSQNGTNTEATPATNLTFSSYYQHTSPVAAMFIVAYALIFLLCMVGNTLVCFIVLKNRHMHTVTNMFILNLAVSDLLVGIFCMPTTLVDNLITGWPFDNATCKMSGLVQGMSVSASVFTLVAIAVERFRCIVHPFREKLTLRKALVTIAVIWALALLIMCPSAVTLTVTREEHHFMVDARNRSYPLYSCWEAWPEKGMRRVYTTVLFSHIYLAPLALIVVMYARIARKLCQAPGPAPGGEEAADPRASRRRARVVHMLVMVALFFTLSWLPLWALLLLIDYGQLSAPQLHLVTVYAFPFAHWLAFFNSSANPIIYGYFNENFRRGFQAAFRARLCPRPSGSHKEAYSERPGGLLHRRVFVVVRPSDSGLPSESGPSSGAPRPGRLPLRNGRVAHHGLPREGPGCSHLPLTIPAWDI
Experimental: (§1) The functional characterization of the selected compounds was performed by Glo Sensor cAMP kinetic assay, a validated approach for measuring Gαi/s activation by GPCRs (DiRaddo et al., 2014; Gilissen et al., 2015). HEK-Glo cells expressing either NPFF1 or NPFF2 receptors were suspended (10^6 cells per mF) in physiological Hepes buffer (10 mM HEPES, 0.4 mM NaH2PO4, 137.5 mM NaCl, 1.25 mM MgCl2, 1.25 mM CaCl2, 6 mM KCl, 10 mM glucose and 1 mg/mF bovine serum albumin, pH 7.4) supplemented with 1 mM D-Fuciferine. After equilibration for 2 h at 25° C., luminescence levels were recorded in real time in 96-well plates using a Flexstation^R 3 (Molecular Devices, Sunnyvale Calif., USA). Non-specific effect of the different compounds was evaluated in HEK-Glo cells without any recombinant human RF-amide receptors. To test the agonist activity on NPFF1R and NPFF2R, compounds were injected 15 minutes before addition of forskolin (0.5 μM) and readings were pursued for 90 minutes. To evaluate their antagonist properties, compounds were pre-incubated with cells for 15 minutes before prototypical agonists for NPFF1R (RFRP-3) and NPFF2R (NPFF) receptors. According to their preferential coupling to Gi/o proteins, the stimulation of NPFF1R and NPFF2R by agonists was monitored as a dose-dependent reduction in steady-state luminescence levels, reflecting the inhibition of forskolin-induced cAMP accumulation. Experiments were performed at 25° C. in the presence of 0.5 mM IBMX to prevent the degradation of cAMP by phosphodiesterases.

hNPFF2R = target: T3, hNPFF2R (Homo sapiens, UniProt Q9Y5X5); assay: Glo Sensor cAMP assay in HEK-293 expressing hNPFF2R; type: cell-based; settings: cells expressing hNPFF2R; forskolin 0.5 μM
T3 construct: expressed in transfected cells
T3 sequence (Q9Y5X5 whole entry): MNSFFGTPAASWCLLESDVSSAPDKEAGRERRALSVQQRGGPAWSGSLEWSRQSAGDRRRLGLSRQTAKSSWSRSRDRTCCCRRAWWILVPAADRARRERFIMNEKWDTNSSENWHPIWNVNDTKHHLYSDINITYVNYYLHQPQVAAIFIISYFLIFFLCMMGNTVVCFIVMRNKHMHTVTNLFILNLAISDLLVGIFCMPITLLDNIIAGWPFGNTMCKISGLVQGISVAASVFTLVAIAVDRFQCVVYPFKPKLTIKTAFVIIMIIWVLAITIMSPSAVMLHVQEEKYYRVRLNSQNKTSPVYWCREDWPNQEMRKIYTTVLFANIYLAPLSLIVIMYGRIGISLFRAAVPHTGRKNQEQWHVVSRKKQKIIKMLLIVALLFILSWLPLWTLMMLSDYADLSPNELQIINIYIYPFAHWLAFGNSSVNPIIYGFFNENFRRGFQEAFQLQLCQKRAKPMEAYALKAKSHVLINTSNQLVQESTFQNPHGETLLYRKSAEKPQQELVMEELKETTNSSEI
Experimental: as §1, with “To evaluate their antagonist properties, compounds were pre-incubated with cells for 15 minutes before prototypical agonists for NPFF1R (RFRP-3) and NPFF2R (NPFF) receptors.” left out, “Experiments were performed at 25° C. in the presence of 0.5 mM IBMX to prevent the degradation of cAMP by phosphodiesterases.” left out

C57BF6/N male mice = assay: Neuropathic pain model (chronic constriction injury), Von Frey test; type: in vivo
[1] = tested on: NPFFR1 KO and wild-type littermates; assay: Morphine-induced hyperalgesia and tolerance in NPFF1R knockout mice and WT littermates; type: in vivo

T1 sequence (Q9GZQ6 whole entry): as the sequence (Q9GZQ6 whole entry) above

SMILES: Nc1ccc(-c2cccc(Cl)c2Cl)c(N)n1 [Compound 1j, 3-(2,3-dichlorophenyl)pyridine-2,6-diamine]
- Ki (hNPFFR1): 20 ± 2 nM
- antagonist activity: effect on dose response curve of NPVF (RFRP-3), forskolin-stimulated cAMP (hNPFF1R; HEK-293 cells expressing hNPFF1R, FIG. 7): efficiently shifted to the right the dose response curve of NPVF
- effect of compound tested alone (agonist activity) (hNPFF1R; cells expressing hNPFF1R, forskolin 0.5 μM): had no effect
- effect of compound tested alone (agonist activity) (hNPFF2R): had no effect
- mechanical allodynia after CCI (allodynia index d11-d21), drug alone (C57BF6/N male mice; morphine 3 mg/kg sc. alone or 1j 5 mg/kg p.o. alone, FIG. 4B): significantly attenuated the mechanical allodynia
- mechanical allodynia after CCI (allodynia index d11-d21), pre-treatment before morphine (C57BF6/N male mice; mouse, in vivo): significantly enhanced morphine analgesia effect on neuropathic pain
- morphine-induced hyperalgesia in NPFF1R KO mice ([1]; NPFF1R KO, 1j 5 mg/kg oral before daily morphine 10 mg/kg s.c., FIG. 5B, C): did not show any significant effect
- morphine-induced hyperalgesia in WT mice ([1]; WT littermates, 1j 5 mg/kg oral before daily morphine 10 mg/kg s.c., FIG. 5B, C): significantly attenuated this hyperalgesia
- morphine analgesia at day 8 in WT mice (tolerance) ([1]; WT littermates, morphine 5 mg/kg s.c., 1j 5 mg/kg oral, FIG. 5D): failed to restore morphine analgesia at day 8
